Measurements reported in US11040056B2, “Benzimidazoles that enhance the activity of oligonucleotides” (The University of North Carolina at Chapel Hill, priority 2018, dated 2021).

How the values were obtained:
HeLaLuc705 cells = assay: SSO-mediated luciferase induction assay; format: cell-based
Procedure: FIG. 1B-1E. Effects with SSOs. FIG. 1B Structure of UNC2383. […] The cells were then rinsed and incubation continued for an additional 4 h in DMEM+10% FBS. Cells were rinsed twice in PBS and luciferase activity (RLU) and cell protein determined. The larger round symbol indicates the MM oligonucleotide. Means+/−SE. N=3. […] The cells were further incubated and then luciferase and protein determined. The total time of incubation in each case was 6 h. […] Means+/−SE. N=3.
FIG. 3. Effect and Cytotoxicity of Analogs. The effect of selected UNC2383 analogs on luciferase induction by SSO623 was measured as described in Methods and in the legend of FIG. 1B-1E. Cytotoxicity was measured using the Alamar Blue method as in FIG. 1E. MM10 is the effect of 10 uM compound in the presence of a mismatched oligonucleotide. Means and SE. N=3.
HeLaLuc705 cells are stably transfected with a firefly luciferase reporter whose coding sequence is interrupted by an abnormal intron. […] NIH-3T3-MDR cells are stably transfected with a human MDR1 cDNA coding for the P-glycoprotein (Pgp). We have described the maintenance and use of these cell lines elsewhere. (18, 20)
SSO-mediated luciferase induction assays were conducted as previously described. (18) In short, HeLaLuc705 cells in 24 well culture plates were preincubated with SSO623 followed by brief treatment with the small molecule; at intervals thereafter, luciferase activity and protein content were determined. […] (30)

HeLa Luc 705 cells = assay: Confocal microscopy of endomembrane permeability and oligonucleotide localization; format: cell-based; conditions: 2 h
Procedure: FIG. 5A-5B. Effect on endomembrane permeability. FIG. 5A: HeLa Luc 705 cells (50 000) were seeded into glass-bottom dishes and incubated at 37° C. for attachment. Alexa 488-Dextran 10K (200 μg/mL) or TAMRA SSO 623 (2.5 μM) were added into the medium and the cells incubated for 24 h. Cells were washed with PBS and then placed back in the medium and treated with UNC2383 for 2 h or maintained as controls. Cells were rinsed after drug treatment. Live cells were imaged with an Olympus FV1200 or a Zeiss LSM710 confocal microscope. For the studies with Alexa 488 Dextran, the controls are shown in image panels a and b while cells treated with 10 μM UNC2383 are in image panels c and d. […] Images e and f are composites of TAMRA, Hoechst, and DIC images, and the pink coloration in f indicates overlap of the TAMRA and Hoechst fluorescence. Images are typical of three independent assays. Intensity settings were identical for fluorescence images with or without UNC2383. FIG. 5B quantitates the TAMRA fluorescence in the nucleus for controls versus cells treated with 5 μM UNC2383, as measured using Fiji software, with Hoechst stain used to delineate the nucleus (N=12).
FIG. 6. Confocal images of compound effects on nuclear distribution of a fluorescent oligonucleotide. […] Nuclei lacking fluorescence are indicated with gray arrows. […]
FIG. 7A-7B. […] Composite images showing TAMRA fluorescence, GFP, and DIC are provided. […]
Effects of UNC2383 on endosome stability were monitored in cell culture models as previously described. […] Live cells were imaged by fluorescence confocal microscopy with or without treatment with UNC2383 or its analogs. […] Co-localization of TAMRA labeled SSO 623 with marker proteins was quantitated using Fiji (ImageJ) software and expressed as a Manders' Correlation Coefficient. […] EGFP protein expression was monitored by immunostaining with an anti-EGFP antibody (Abcam) using techniques previously described. (3) EGFP immunostaining was analyzed using a Leica SP2 confocal microscope with acquisition parameters constant throughout the study: images were processed with Adobe Photoshop software. […]

[1] = In vivo toxicity parameters (cardiac blood samples)
Procedure: All animal procedures were conducted in compliance with guidelines of the UNC Laboratory Animal Medicine Department and with federal guidelines. […] (20, 32) EGFP654 mice were administered 35 mg/kg of SSO623 or mismatched oligonucleotide in buffer by intraperitoneal injection on two consecutive days. One day later, mice received either 5 mg/kg of UNC2383 in a 1:1 DMSO/PEG400 solution or only the diluent, via intraperitoneal injection. […] After 24 h, the second cohort was euthanized and tissue and cardiac blood samples were obtained. […] (31) Blood samples were analyzed by the UNC Animal Clinical Chemistry Core facility.

[2] = cells preloaded with 100 nM SSO623, FIG. 1D
[3] = 24 h after administration, means +/− SE, N = 4

## O=C(Nc1nc2ccccc2n1CCN1CCCC1)c1cc2cc(Cl)ccc2o1 [UNC2383]
HeLaLuc705 cells
  effectiveness in cells compared to Retro-1: far more effective
  effectiveness in cells compared to UNC10217938: approximately equivalent
HeLaLuc705 cells; 2 μM
  enhancement of SSO actions: quite strongly enhanced
HeLaLuc705 cells; FIG. 9C, 2 h, chloroquine also 16 h
  SSO-mediated luciferase induction, comparison with chloroquine: very active
HeLaLuc705 cells; [2]
  onset of action: effects first observed: ≤ 30 min
  onset of action: reaching a plateau: ≤ 120 min
HeLaLuc705 cells; luciferase induction by SSO623
  EC50: 2000 nM
HeLaLuc705 cells; mismatched oligonucleotide followed by compound
  luciferase induction after mismatched oligonucleotide: no effect
HeLa Luc 705 cells; 5 μM
  relocalization of TAMRA labeled SSO to the nucleus: partial but substantial relocalization
HeLa Luc 705 cells; 5 μM, GFP-Rab7, GFP-LAMP1
  colocalization of TAMRA-SSO with late endosomes and lysosomes (Manders' Correlation Coefficient): substantially reduced
HeLa Luc 705 cells; 10 μM
  release of Alexa 488-Dextran from vesicular entrapment: partial release
[1]; 5 mg/kg i.p.
  toxicity in vivo: limited toxicity
[1]; [3]
  ALT: 106 +/− 32 U/L
  AST: 76 +/− 15 U/L
  BUN: 20 ± 4 mg/dL
  Hb: 11.8 ± 0.4 g/dL
  Platelets: 711 +/− 85 × 10^3/ul
